From US9867811B2, “Method of treating atherosclerosis in high triglyceride subjects” (NOVARTIS AG, priority 2011, dated 2018)

Legend:
CETP [1] = assay: Ex vivo CETP activity in plasma of hamsters (saline or Triton WR-1339 treated); settings: hamster; for Inhibition of plasma CETP activity: saline group, 8 h after dose; for Extent of CETP inhibition reduced by, relative to the saline group (74% inhibition): 10 mg/kg oral; for Increase in plasma CETP activity: 3 h after administration
Procedure: Nine- to ten-week-old, male golden Syrian hamsters were purchased from Japan SLC Inc. (Shizuoka, Japan). Animals underwent a more than 1-week acclimation period under the following conditions: 8:00/20:00 light/dark cycle, room temperature 23±2° C. […] During this time, animals received filtered (0.5 μm) water and a standard chow diet ad libitum.
Whole blood samples were collected using a heparin-washed syringe (Heparin sodium injection “Ajinomoto”; Ajinomoto, Tokyo, Japan) from the abdominal vein by venipuncture under isoflurane (Abbott Japan Co. Ltd.) inhalant anesthesia. After centrifugation at 15,000 rpm for 10 min at 4° C., heparinized plasma was prepared and stored at −80° C. until use.
CETP activity (RFU/min) was defined as the change in fluorescence intensity from 30 to 90 min.
The effect of an acute increase of plasma triglycerides in vivo (acute increase in triglyceride-rich particles) on the ability of Torcetrapib to alter plasma CETP activity, triglyceride and total cholesterol levels was investigated. Torcetrapib at doses of 3, 10 or 30 mg/kg or vehicle was administered once by gavage to hamsters fed a standard chow diet.
Compound or vehicle was administered once by gavage to hamsters fed a standard chow diet.

[2] = Total cholesterol and triglyceride concentrations in hamster plasma; type: in vivo; settings: for Increase in plasma total cholesterol / Increase in plasma triglycerides: 3 h after administration
Procedure: Nine- to ten-week-old, male golden Syrian hamsters were purchased from Japan SLC Inc. (Shizuoka, Japan). Animals underwent a more than 1-week acclimation period under the following conditions: 8:00/20:00 light/dark cycle, room temperature 23±2° C. (range), 55±15% (range) humidity. During this time, animals received filtered (0.5 μm) water and a standard chow diet ad libitum.
(§1) To induce an acute increase in plasma triglyceride levels, Triton WR-1339 (Cat. No. 35418-12, Nacalai Tesque Inc, Kyoto, Japan) was dissolved in saline (Otsuka Normal Saline, Otsuka Pharmaceuticals, Tokushima, Japan) at a concentration of 2.5 to 10% (w/w), and was intravenously administered at a volume of 2 mL/kg from the basilic vein under isoflurane (FORANE®, Abbott Japan Co. Ltd., Tokyo, Japan) inhalant anesthesia. Whole blood samples were collected using a heparin-washed syringe (Heparin sodium injection “Ajinomoto”; Ajinomoto, Tokyo, Japan) from the abdominal vein by venipuncture under isoflurane (Abbott Japan Co. Ltd.) inhalant anesthesia. After centrifugation at 15,000 rpm for 10 min at 4° C., heparinized plasma was prepared and stored at −80° C. until use.
Compounds (CETP inhibitors) were suspended in 0.5% methyl cellulose (Methyl cellulose 400 cP, Cat. No. 138-05072, Wako Pure Chemical Industries, Osaka, Japan) solution, which was used as a vehicle. Compound or vehicle (10 mL/kg) was administered once by oral gavage 5 h before administration of Triton WR-1339.
Cholesterol and triglyceride concentrations in plasma and serum were measured manually with kits (Cholesterol E-test, Cat. No. 439-17501, and Triglyceride E-test, Cat. No. 432-40201, Wako Pure Chemical, Osaka, Japan).

CETP [3] = assay: Ex vivo plasma CETP activity assay with exogenously added compound (maximum inhibition); type: biochemical; settings: 10 μM, hamster plasma (80% plasma)
Procedure: Plasma CETP activity ex vivo was determined as followed: 50 μL of hamster plasma (final 80% plasma) was mixed with 10 μL of donor solution diluted with assay buffer composed of 50 mM Tris-HCl (pH7.4) containing 150 mM NaCl and 2 mM EDTA in a 96-well half area black flat bottom plate (Cat. No. 3686, Corning, Corning, N.Y.). Fluorescence intensity was measured every 15 min at an excitation wave length of 485 nm and an emission wavelength of 535 nm for 120 min at 37° C. using ARVO SX+L (PerkinElmer, Wellesley, Mass.). CETP activity (RFU/min) was defined as the change in fluorescence intensity from 30 to 90 min.

CETP [4] = assay: Plasma CETP concentrations (ELISA) in hamsters; type: in vivo; settings: hamster, Triton WR-1339 i.v., any dose
Procedure: as §1
Plasma CETP concentrations were measured using an enzyme-linked […] assay (ELISA) kit (Cat No. 278181, Daiichi Pure Chemicals, Tokyo, Japan). Recombinant human CETP protein was used as a standard. Hamster plasma was diluted 250-fold by the dilution buffer in the kit, and then CETP concentration was measured according to the manufacturer's protocol.

[5] = HPLC lipoprotein analysis in hamster plasma; type: in vivo
Procedure: as §1
An HPLC-size exclusion chromatography system with an on-line enzymatic dual detection system for lipids has been used for lipoprotein analysis. Plasma samples were diluted (5-fold) with saline after filtration (0.45 μm, Millipore Co, Cat. No. UFC30HV00) and injected into the HPLC system at a volume of 100 μL (as 20 μL of plasma), every 95 min, using an auto-sampler. Plasma lipoproteins were separated using a single Superose 6 column and filtered phosphate buffered saline (0.45 μm, Millipore Co., Bedford, Mass., Cat. No. SJHVM4710; PBS, Dainippon Pharmaceutical, Osaka, Japan Cat. No. 28-103-05 FN) at a flow rate of 0.5 mL/min. Each enzymatic reagent was pumped at a flow rate of 0.25 mL/min. Both enzymatic reactions proceeded at 37° C. in a reactor coil (Teflon tube, 15 m×0.4 mm id) in the column oven. The color developed after the enzyme reaction was measured at 580 nm, and the electric signal was monitored (every 0.5 second).
A control pooled EDTA-plasma sample was used to standardize the cholesterol and phospholipid levels in lipoproteins. Cholesterol and phospholipid levels in the control plasma were measured manually with kits (Cholesterol E-test, Cat. No. 439-17501, and Phospholipid C-test, Cat. No. 433-36201, respectively, Wako Pure Chemical Industries), and the concentrations were 121.8 and 216.8 mg/dL, respectively. Concentrations of VLDL, LDL, and HDL-cholesterol and -phospholipid levels were calculated using chromatogram areas observed for control hamster plasma samples. With this methodology, the retention times of control hamster VLDL, LDL, and HDL were 18.5-24.0, 24.0-30.5, and 31.5-42.0 min, respectively.

Q: Which “Differences between the saline and WR-1339 groups in the extent of CETP inhibition” value (CETP [1]; 3 mg/kg oral gavage) does the source give for CCOC(=O)N1c2ccc(C(F)(F)F)cc2[C@@H](N(Cc2cc(C(F)(F)F)cc(C(F)(F)F)c2)C(=O)OC)C[C@H]1CC [Torcetrapib] here?
A: 5.5%

Q: And the “Inhibition of plasma CETP activity” value (CETP [1]; 3 mg/kg oral gavage)?
A: 38%

Q: What about the “Differences between the saline and WR-1339 groups in the extent of CETP inhibition” value (CETP [1]; 10 mg/kg oral gavage) of the same compound?
A: 13%

Q: And the “Inhibition of plasma CETP activity” value (CETP [1]; 10 mg/kg oral gavage)?
A: 74%

Q: What about the “Extent of CETP inhibition reduced by, relative to the saline group (74% inhibition)” value (CETP [1]; Triton WR-1339 50 mg/kg i.v.) of the same compound?
A: 44%

Q: And the “Extent of CETP inhibition reduced by, relative to the saline group (74% inhibition)” value (CETP [1]; Triton WR-1339 100 mg/kg i.v.)?
A: 13%

Q: What about the “Differences between the saline and WR-1339 groups in the extent of CETP inhibition” value (CETP [1]; 30 mg/kg oral gavage (P<0.01)) of the same compound?
A: 35%

Q: What about the “Inhibition of plasma CETP activity” value (CETP [1]; 30 mg/kg oral gavage) of the same compound?
A: 88%

Q: What about the “Inhibition of CETP activity, lower dose group, Triton WR-1339 group” value (CETP [1]; oral gavage: Torcetrapib 5 mg/kg, Anacetrapib 1.5 mg/kg, Example 49 1.5 mg/kg, Example 8 0.75 mg/kg, Triton WR-1339 100 mg/kg i.v., not significant vs vehicle) of the same compound?
A: 13%

Q: And the “Inhibition of CETP activity, lower dose group, saline group” value (CETP [1]; oral gavage: Torcetrapib 5 mg/kg, Anacetrapib 1.5 mg/kg, Example 49 1.5 mg/kg, Example 8 0.75 mg/kg, saline i.v.)?
A: 60%

Q: What about the “Inhibition of CETP activity, higher dose group, Triton WR-1339 group” value (CETP [1]; oral gavage: Torcetrapib 10 mg/kg, Anacetrapib 3 mg/kg, Example 49 3 mg/kg, Example 8 1.5 mg/kg, Triton WR-1339 100 mg/kg i.v.) of the same compound?
A: 8%

Q: What about the “Inhibition of CETP activity, higher dose group, saline group” value (CETP [1]; oral gavage: Torcetrapib 10 mg/kg, Anacetrapib 3 mg/kg, Example 49 3 mg/kg, Example 8 1.5 mg/kg, saline i.v.) of the same compound?
A: 75%

Q: And the “Effect on plasma triglycerides” value ([2]; Triton WR-1339 treatment groups)?
A: did not affect

Q: And the “Effect on plasma triglyceride levels” value ([2]; saline group, 3 and 30 mg/kg oral doses)?
A: slightly, but significantly, lowered

Q: What about the “Effect on total cholesterol levels” value ([2]; saline or Triton WR-1339 groups) of the same compound?
A: not changed

Q: What about the “Maximum inhibition of CETP activity, compound exogenously added, Triton WR-1339 group” value (CETP [3]; Triton WR-1339 group) of the same compound?
A: around 75%

Q: What about the “Maximum inhibition of CETP activity, compound exogenously added, saline group” value (CETP [3]; saline group) of the same compound?
A: ~100%

Q: For Triton WR-1339, which “Increase in plasma CETP activity” value (CETP [1]; Triton WR-1339 50 mg/kg i.v.) is on record?
A: 1.7 fold

Q: And the “Increase in plasma CETP activity” value (CETP [1]; Triton WR-1339 100 mg/kg i.v.)?
A: 3.7 fold

Q: What about the “Increase in plasma total cholesterol” value ([2]; Triton WR-1339 50 mg/kg i.v.) of the same compound?
A: 1.2 fold

Q: What about the “Increase in plasma triglycerides” value ([2]; Triton WR-1339 50 mg/kg i.v.) of the same compound?
A: 2.0 fold

Q: And the “Increase in plasma total cholesterol” value ([2]; Triton WR-1339 100 mg/kg i.v.)?
A: 1.4 fold

Q: What about the “Increase in plasma triglycerides” value ([2]; Triton WR-1339 100 mg/kg i.v.) of the same compound?
A: 4.0 fold

Q: And the “Time of maximum increase in triglyceride levels after administration” value ([2]; Triton WR-1339 50, 100 or 200 mg/kg i.v.)?
A: 8 h

Q: And the “Effect on plasma CETP concentrations” value (CETP [4])?
A: did not significantly affect

Q: What about the “Effect on HDL-cholesterol” value ([5]; Triton WR-1339 50 mg/kg i.v.) of the same compound?
A: not changed

Q: What about the “Effect on HDL-cholesterol” value ([5]; Triton WR-1339 100 mg/kg i.v.) of the same compound?
A: reduced

Q: And the “Effect on LDL-cholesterol” value ([5]; Triton WR-1339 i.v.)?
A: reduced

Q: And the “Effect on cholesterol content of VLDL” value ([5]; Triton WR-1339 i.v. compared to saline group)?
A: increased
